In ChEMBL document CHEMBL4421728, “Bach1 Inhibitors in Combination with Nrf2 Activators and Pharmaceutical Compositions Thereof” (2017):

Experiments:
[1] = target: T1, Transcription regulator protein BACH1 (Homo sapiens) (UniProt O14867); test: Inhibition of Bach1 in normal human lung fibroblasts assessed as induction of HMOX protein expression at 0.156 uM in presence of 0.03 uM Nrf2 activator DMF incubated for 16 to 18 hrs by immunostaining relative to control
T1 sequence (whole entry): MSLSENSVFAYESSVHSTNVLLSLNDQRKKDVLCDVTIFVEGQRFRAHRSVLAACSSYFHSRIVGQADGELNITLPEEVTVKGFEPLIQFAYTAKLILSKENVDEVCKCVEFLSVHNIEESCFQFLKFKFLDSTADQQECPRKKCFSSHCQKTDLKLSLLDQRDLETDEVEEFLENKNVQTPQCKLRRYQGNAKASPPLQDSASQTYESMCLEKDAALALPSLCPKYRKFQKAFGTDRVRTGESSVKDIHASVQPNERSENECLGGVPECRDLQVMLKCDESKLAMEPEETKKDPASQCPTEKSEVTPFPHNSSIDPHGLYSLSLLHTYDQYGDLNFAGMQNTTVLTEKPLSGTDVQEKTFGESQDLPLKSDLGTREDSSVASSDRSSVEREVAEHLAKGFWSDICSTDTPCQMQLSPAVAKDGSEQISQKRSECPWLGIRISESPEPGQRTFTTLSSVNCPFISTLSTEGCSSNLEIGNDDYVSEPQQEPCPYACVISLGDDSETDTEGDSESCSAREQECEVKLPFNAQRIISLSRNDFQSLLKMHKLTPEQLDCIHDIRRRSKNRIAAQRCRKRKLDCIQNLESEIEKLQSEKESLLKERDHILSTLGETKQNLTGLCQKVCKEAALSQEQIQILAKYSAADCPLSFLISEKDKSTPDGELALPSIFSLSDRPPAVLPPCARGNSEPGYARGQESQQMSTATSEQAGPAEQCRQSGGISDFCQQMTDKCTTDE

[2] = target: T1, Transcription regulator protein BACH1 (Homo sapiens); test: Inhibition of Bach1 in normal human lung fibroblasts assessed as induction of HMOX protein expression at 0.039 uM in presence of 1 uM Nrf2 activator DMF incubated for 16 to 18 hrs by immunostaining relative to control
[3] = target: T1, Transcription regulator protein BACH1 (Homo sapiens); test: Inhibition of Bach1 in normal human lung fibroblasts assessed as induction of HMOX protein expression by measuring HMOX positive cells level at 0.078 uM in presence of 1 uM Nrf2 activator DMF incubated for 16 to 18 hrs by immunostaining relative to control DMSO; design: scale not given: the % may be the effect or the level left
[4] = target: T1, Transcription regulator protein BACH1 (Homo sapiens); test: Inhibition of Bach1 in normal human lung fibroblasts assessed as induction of HMOX protein expression by measuring HMOX positive cells level at 0.156 uM in presence of 0.03 uM Nrf2 activator DMF incubated for 16 to 18 hrs by immunostaining relative to control DMSO; design: scale not given: the % may be the effect or the level left
[5] = target: T1, Transcription regulator protein BACH1 (Homo sapiens); test: Inhibition of Bach1 in normal human lung fibroblasts assessed as induction of HMOX protein expression at 0.078 uM in presence of 0.1 uM Nrf2 activator DMF incubated for 16 to 18 hrs by immunostaining relative to control
[6] = target: T1, Transcription regulator protein BACH1 (Homo sapiens); test: Inhibition of Bach1 in normal human lung fibroblasts assessed as induction of HMOX protein expression by measuring HMOX positive cells level at 0.039 uM in presence of 10 uM Nrf2 activator DMF incubated for 16 to 18 hrs by immunostaining relative to control DMSO; design: scale not given: the % may be the effect or the level left
[7] = target: T1, Transcription regulator protein BACH1 (Homo sapiens); test: Inhibition of Bach1 in normal human lung fibroblasts assessed as induction of HMOX protein expression by measuring HMOX positive cells level at 0.078 uM incubated for 16 to 18 hrs by immunostaining relative to control DMSO; design: scale not given: the % may be the effect or the level left
[8] = target: T1, Transcription regulator protein BACH1 (Homo sapiens); test: Inhibition of Bach1 in normal human lung fibroblasts assessed as induction of HMOX protein expression at 0.019 uM in presence of 10 uM Nrf2 activator DMF incubated for 16 to 18 hrs by immunostaining relative to control
[9] = target: T1, Transcription regulator protein BACH1 (Homo sapiens); test: Inhibition of Bach1 in normal human lung fibroblasts assessed as induction of HMOX protein expression by measuring HMOX positive cells level at 0.039 uM in presence of 0.1 uM Nrf2 activator DMF incubated for 16 to 18 hrs by immunostaining relative to control DMSO; design: scale not given: the % may be the effect or the level left
[10] = target: T1, Transcription regulator protein BACH1 (Homo sapiens); test: Inhibition of Bach1 in normal human lung fibroblasts assessed as induction of HMOX protein expression by measuring HMOX positive cells level at 0.019 uM in presence of 0.1 uM Nrf2 activator DMF incubated for 16 to 18 hrs by immunostaining relative to control DMSO; design: scale not given: the % may be the effect or the level left
[11] = target: T1, Transcription regulator protein BACH1 (Homo sapiens); test: Inhibition of Bach1 in normal human lung fibroblasts assessed as induction of HMOX protein expression at 0.078 uM incubated for 16 to 18 hrs by immunostaining relative to control
[12] = target: T1, Transcription regulator protein BACH1 (Homo sapiens); test: Inhibition of Bach1 in normal human lung fibroblasts assessed as induction of HMOX protein expression at 0.019 uM incubated for 16 to 18 hrs by immunostaining relative to control
[13] = target: T1, Transcription regulator protein BACH1 (Homo sapiens); test: Inhibition of Bach1 in normal human lung fibroblasts assessed as induction of HMOX protein expression at 0.039 uM in presence of 0.1 uM Nrf2 activator DMF incubated for 16 to 18 hrs by immunostaining relative to control
[14] = target: T1, Transcription regulator protein BACH1 (Homo sapiens); test: Inhibition of Bach1 in normal human lung fibroblasts assessed as induction of HMOX protein expression by measuring HMOX positive cells level at 0.078 uM in presence of 10 uM Nrf2 activator DMF incubated for 16 to 18 hrs by immunostaining relative to control DMSO; design: scale not given: the % may be the effect or the level left
[15] = target: T1, Transcription regulator protein BACH1 (Homo sapiens); test: Inhibition of Bach1 in normal human lung fibroblasts assessed as induction of HMOX protein expression by measuring HMOX positive cells level at 0.019 uM in presence of 1 uM Nrf2 activator DMF incubated for 16 to 18 hrs by immunostaining relative to control DMSO; design: scale not given: the % may be the effect or the level left
[16] = target: T1, Transcription regulator protein BACH1 (Homo sapiens); test: Inhibition of Bach1 in normal human lung fibroblasts assessed as induction of HMOX protein expression at 0.078 uM in presence of 0.03 uM Nrf2 activator DMF incubated for 16 to 18 hrs by immunostaining relative to control
[17] = target: T1, Transcription regulator protein BACH1 (Homo sapiens); test: Inhibition of Bach1 in normal human lung fibroblasts assessed as induction of HMOX protein expression by measuring HMOX positive cells level at 0.156 uM incubated for 16 to 18 hrs by immunostaining relative to control DMSO; design: scale not given: the % may be the effect or the level left
[18] = target: T1, Transcription regulator protein BACH1 (Homo sapiens); test: Inhibition of Bach1 in normal human lung fibroblasts assessed as induction of HMOX protein expression at 0.156 uM in presence of 30 uM Nrf2 activator DMF incubated for 16 to 18 hrs by immunostaining relative to control
[19] = target: T1, Transcription regulator protein BACH1 (Homo sapiens); test: Inhibition of Bach1 in normal human lung fibroblasts assessed as induction of HMOX protein expression at 0.039 uM in presence of 30 uM Nrf2 activator DMF incubated for 16 to 18 hrs by immunostaining relative to control
[20] = target: T1, Transcription regulator protein BACH1 (Homo sapiens); test: Inhibition of Bach1 in normal human lung fibroblasts assessed as induction of HMOX protein expression at 0.156 uM in presence of 1 uM Nrf2 activator DMF incubated for 16 to 18 hrs by immunostaining relative to control

fold change (FC) [1]	fold change (FC) [2]	Activity [3] [%]	Activity [4] [%]	fold change (FC) [5]	Activity [6] [%]	Activity [7] [%]	fold change (FC) [8]	Activity [9] [%]	Activity [10] [%]	fold change (FC) [11]	fold change (FC) [12]	fold change (FC) [13]	Activity [14] [%]	Activity [15] [%]	fold change (FC) [16]	Activity [17] [%]	fold change (FC) [18]	fold change (FC) [19]	fold change (FC) [20]	Compound
1.99	2.1	37.7	22.1	1.48	94.7	7.12	5.75	6.82	2.37	1.59	1.29	1.35	97.2	10.2	1.37	28.6	5.49	4.9	4.08	CN(C)C(=O)CNC(=O)c1ccc2c(c1)nc(Nc1nc3ccc(C(F)(F)F)cc3s1)n2C
–	–	–	–	–	–	–	–	–	–	1.92	0.97	–	–	–	–	–	–	–	–	CNC(=O)c1ccc2c(c1)nc(Nc1nc3ccc(OC(F)(F)F)cc3s1)n2C
5.22	2.6	84.8	92.5	2.87	99.2	74	5.12	6.75	4.52	4.34	2.08	1.52	97.7	26.4	2.35	96.3	6.18	5.52	6.04	Cn1c(Nc2nc3ccc(C(F)(F)F)cc3s2)nc2cc(C(=O)NCCOCCO)ccc21
1.46	1.97	29.4	8.51	1.21	92	8.23	4.94	2.54	2.55	1.46	1.24	1.08	94.5	7.52	1.12	11.3	4.99	4.82	2.87	COCCNC(=O)c1cnc2c(c1)nc(Nc1nc3ccc(OC(F)(F)F)cc3s1)n2C
